In brackets after ≈: the same amount, converted by molar mass. Activity calls are given as the source filed them. The calls are words filed in the database; no cut-off is given here.

What all share (type): functional
Test [1] has as its system Pseudomonas aeruginosa. Description: Antibiofilm activity against Pseudomonas aeruginosa MTCC 2453 after 24 hrs by crystal violet staining technique.
Test [2] deals with Staphylococcus aureus. Description: Antibiofilm activity against Staphylococcus aureus MLS-16 MTCC 2940 after 24 hrs by crystal violet staining technique.
Test [3] has as its system Staphylococcus aureus. The test can be described thus: Antibiofilm activity against Staphylococcus aureus MTCC 96 after 24 hrs by crystal violet staining technique.
Test [4] concerns Pseudomonas aeruginosa. Description: Antimicrobial activity against Pseudomonas aeruginosa MTCC 2453 assessed as growth inhibition after 24 hrs by well diffusion method. The following applies: MTCC 2453, 24 h. On the technique in general: A growth-free zone around the sample is the usual read-out of agar diffusion tests.
The test system of test [5] is Bacillus subtilis. The test can be described thus: Antimicrobial activity against Bacillus subtilis MTCC 121 assessed as growth inhibition after 24 hrs by well diffusion method. The following applies: MTCC 121, 24 h.
Test [6] concerns Staphylococcus aureus. Description: Antimicrobial activity against Staphylococcus aureus MLS-16 MTCC 2940 assessed as growth inhibition after 24 hrs by well diffusion method. The note with it: MLS-16 MTCC 2940, 24 h.
Test [7] concerns Staphylococcus aureus. Description: Antimicrobial activity against Staphylococcus aureus MTCC 96 assessed as growth inhibition after 24 hrs by well diffusion method. The following applies: MTCC 96, 24 h.
The test system of test [8] is Micrococcus luteus. Description: Antimicrobial activity against Micrococcus luteus MTCC 2470 assessed as growth inhibition after 24 hrs by well diffusion method. The note with it: MTCC 2470, 24 h.

The MIC is the lowest concentration that inhibits growth of the organism. Consider `COc1ccc(-c2nn(-c3ccccc3)cc2C(c2c(O)c3cc(F)ccc3oc2=O)c2c(N)n(C)c(=O)n(C)c2=O)cc1` (stereo unspecified), for which the MBEC result in test [1] and in test [2] was “inactive” throughout. In test [3], this compound came in with an MBEC of 10 µg/mL. Moreover, the MIC was over 150 µg/mL in test [4]; 2.34 µg/mL (≈ 3.93 µM) in test [5]; over 150 µg/mL in test [6]; 4.68 µg/mL (≈ 7.86 µM) in test [7]; 2.34 µg/mL (≈ 3.93 µM) in test [8].
Turning to `Cc1ccc2oc(=O)c(C(c3ccc(F)cc3)c3c(N)n(C)c(=O)n(C)c3=O)c(O)c2c1` (stereo unspecified), the MIC is over 150 µg/mL in test [4]; 37.5 µg/mL (≈ 85.7 µM) in test [5]; 150 µg/mL (≈ 343 µM) in test [6]; over 150 µg/mL in test [7]; over 150 µg/mL in test [8].
For `Cc1cc(O)c(C(c2ccc(C(F)(F)F)cc2)c2c(N)n(C)c(=O)n(C)c2=O)c(=O)o1` (stereo unspecified), the MIC was over 150 µg/mL in test [4]; 150 µg/mL (≈ 343 µM) in test [5]; over 150 µg/mL in test [6]; over 150 µg/mL in test [7]; over 150 µg/mL in test [8].
Turning to `Cn1c(N)c(C(c2cn(-c3ccccc3)nc2-c2ccccc2)c2c(O)c3cc(F)ccc3oc2=O)c(=O)n(C)c1=O` (stereo unspecified), the MBEC result in test [1] was “inactive”. The results for the MBEC in test [2] and in test [3] were 4 µg/mL and 10 µg/mL, respectively. Moreover, the MIC in test [4] was over 150 µg/mL; in test [5] it was 4.68 µg/mL (≈ 8.27 µM); in test [6] it was 1.17 µg/mL (≈ 2.07 µM); in test [7], 2.34 µg/mL (≈ 4.14 µM); in test [8], 2.34 µg/mL (≈ 4.14 µM).
`COc1ccc(C(c2c(O)c3cc(C)ccc3oc2=O)c2c(N)n(C)c(=O)n(C)c2=O)cc1` (stereo unspecified): the MIC in test [4] is over 150 µg/mL; in test [5], 75 µg/mL (≈ 167 µM); in test [6], 75 µg/mL (≈ 167 µM); in test [7], over 150 µg/mL; in test [8] it was 75 µg/mL (≈ 167 µM).
On to `O=C(O)c1cn(C2CC2)c2cc(N3CCNCC3)c(F)cc2c1=O` [CIPROFLOXACIN], for which the MBEC in test [1], in test [2] and in test [3] was 4 µg/mL each time. The MIC in test [4], in test [5], in test [6], in test [7] and in test [8] was 0.58 µg/mL (≈ 1.75 µM) each time.
As for `Cn1c(N)c(C(c2ccc(C#N)cc2)c2c(O)c3ccc4ccccc4c3oc2=O)c(=O)n(C)c1=O` (stereo unspecified), the MIC in test [4] was over 150 µg/mL; in test [5], 37.5 µg/mL (≈ 78 µM); in test [6] it was 37.5 µg/mL (≈ 78 µM); in test [7], over 150 µg/mL; in test [8], 150 µg/mL (≈ 312 µM).
For the compound `Cc1ccc2oc(=O)c(C(c3ccc(C#N)cc3)c3c(N)n(C)c(=O)n(C)c3=O)c(O)c2c1` (stereo unspecified), the MIC was over 150 µg/mL in test [4]; over 150 µg/mL in test [5]; 150 µg/mL (≈ 337 µM) in test [6]; over 150 µg/mL in test [7]; over 150 µg/mL in test [8].
Consider `CCCC(c1c(O)c2cc(C)ccc2oc1=O)c1c(N)n(C)c(=O)n(C)c1=O` (stereo unspecified), for which the MIC in test [4] was over 150 µg/mL; in test [5], 18.8 µg/mL (≈ 48.6 µM); in test [6], 75 µg/mL (≈ 195 µM); in test [7], 75 µg/mL (≈ 195 µM); in test [8], 75 µg/mL (≈ 195 µM).
As for `Cc1ccc2oc(=O)c(C(c3ccc(C(F)(F)F)cc3)c3c(N)n(C)c(=O)n(C)c3=O)c(O)c2c1` (stereo unspecified), the MBEC in test [1] and in test [2] was 20 µg/mL each time. In addition, in test [3], the MBEC entry is “inactive”. The MIC in test [4] is 9.37 µg/mL (≈ 19.2 µM); in test [5], 9.37 µg/mL (≈ 19.2 µM); in test [6], 18.8 µg/mL (≈ 38.5 µM); in test [7], over 150 µg/mL; in test [8] it was 18.8 µg/mL (≈ 38.5 µM).
Regarding `Cc1ccc2oc(=O)c(C(c3cn(-c4ccccc4)nc3-c3ccccc3)c3c(N)n(C)c(=O)n(C)c3=O)c(O)c2c1` (stereo unspecified), the MBEC result in test [1] and in test [2] was “inactive” each time. In test [3], the MBEC stood at 10 µg/mL. In addition, the MIC was over 150 µg/mL in test [4]; 2.34 µg/mL (≈ 4.17 µM) in test [5]; over 150 µg/mL in test [6]; 4.68 µg/mL (≈ 8.33 µM) in test [7]; 2.34 µg/mL (≈ 4.17 µM) in test [8].
Take `Cn1c(N)c(C(c2ccc(C(F)(F)F)cc2)c2c(O)c3ccc4ccccc4c3oc2=O)c(=O)n(C)c1=O` (stereo unspecified): the MBEC result in test [1] was “inactive”. Moreover, the MBEC in test [2] and in test [3] was 10 µg/mL throughout. The MIC in test [4] is over 150 µg/mL; in test [5] it was 9.37 µg/mL (≈ 17.9 µM); in test [6] it was 2.34 µg/mL (≈ 4.47 µM); in test [7], 9.37 µg/mL (≈ 17.9 µM); in test [8], 18.8 µg/mL (≈ 35.8 µM).
Consider `Cn1c(N)c(C(c2ccc(C#N)cc2)c2c(O)c3cc(F)ccc3oc2=O)c(=O)n(C)c1=O` (stereo unspecified), for which the MIC in test [4] is over 150 µg/mL; in test [5], 75 µg/mL (≈ 167 µM); in test [6], 75 µg/mL (≈ 167 µM); in test [7], 75 µg/mL (≈ 167 µM); in test [8] it was over 150 µg/mL.
`COc1cc(C(c2c(O)c3cc(F)ccc3oc2=O)c2c(N)n(C)c(=O)n(C)c2=O)ccc1O` (stereo unspecified): the MBEC result in test [1] and in test [3] was “inactive” each time. Besides, the MBEC in test [2] stood at 40 µg/mL. The MIC is over 150 µg/mL in test [4]; 9.37 µg/mL (≈ 20 µM) in test [5]; 37.5 µg/mL (≈ 79.9 µM) in test [6]; 75 µg/mL (≈ 160 µM) in test [7]; 9.37 µg/mL (≈ 20 µM) in test [8].
On to `Cc1ccc2oc(=O)c(C(c3ccc(C(C)C)cc3)c3c(N)n(C)c(=O)n(C)c3=O)c(O)c2c1` (stereo unspecified), for which the minimal inhibitory concentration (MIC) is over 150 µg/mL in test [4]; 9.37 µg/mL (≈ 20.3 µM) in test [5]; 150 µg/mL (≈ 325 µM) in test [6]; over 150 µg/mL in test [7]; 75 µg/mL (≈ 163 µM) in test [8].
With `Cc1ccc(-c2nn(-c3ccccc3)cc2C(c2c(O)c3cc(F)ccc3oc2=O)c2c(N)n(C)c(=O)n(C)c2=O)cc1` (stereo unspecified), the MBEC entry in test [1] and in test [2] was “inactive” throughout. In test [3], this compound had an MBEC of 4 µg/mL. Besides, the minimal inhibitory concentration (MIC) in test [4] was over 150 µg/mL; in test [5], 1.17 µg/mL (≈ 2.02 µM); in test [6], over 150 µg/mL; in test [7], 2.34 µg/mL (≈ 4.04 µM); in test [8] it was 0.58 µg/mL (≈ 1 µM).
As for `COc1ccc(-c2nn(-c3ccccc3)cc2C(c2c(O)c3cc(C)ccc3oc2=O)c2c(N)n(C)c(=O)n(C)c2=O)cc1` (stereo unspecified), the MBEC result in test [1] and in test [2] was “inactive” in each case. Moreover, in test [3], the MBEC was determined as 10 µg/mL. In addition, the MIC was over 150 µg/mL in test [4]; 2.34 µg/mL (≈ 3.96 µM) in test [5]; over 150 µg/mL in test [6]; 4.68 µg/mL (≈ 7.91 µM) in test [7]; 2.34 µg/mL (≈ 3.96 µM) in test [8].
In the case of `COc1ccc(C(c2c(O)c3ccc4ccccc4c3oc2=O)c2c(N)n(C)c(=O)n(C)c2=O)cc1OC` (stereo unspecified), the MIC in test [4] is over 150 µg/mL; in test [5], 18.8 µg/mL (≈ 36.4 µM); in test [6], 9.37 µg/mL (≈ 18.2 µM); in test [7], over 150 µg/mL; in test [8] it was over 150 µg/mL.
Take `CCOc1cc(C(c2c(O)c3cc(C)ccc3oc2=O)c2c(N)n(C)c(=O)n(C)c2=O)ccc1O` (stereo unspecified): the results for the MBEC in test [1] and in test [2] were 20 µg/mL and 10 µg/mL, respectively. For the same compound, the MBEC entry in test [3] was “inactive”. Besides, the minimal inhibitory concentration (MIC) in test [4] was determined as 9.37 µg/mL (≈ 19.5 µM); in test [5] it was 9.37 µg/mL (≈ 19.5 µM); in test [6] it was 9.37 µg/mL (≈ 19.5 µM); in test [7], 75 µg/mL (≈ 156 µM); in test [8], 9.37 µg/mL (≈ 19.5 µM).
With `Cn1c(N)c(C(c2cn(-c3ccccc3)nc2-c2ccc(Cl)cc2)c2c(O)c3cc(F)ccc3oc2=O)c(=O)n(C)c1=O` (stereo unspecified), the MBEC entry in test [1] and in test [2] was “inactive” in each case. In addition, the MBEC in test [3] was determined as 4 µg/mL. For the same compound, the MIC in test [4] was over 150 µg/mL; in test [5], 1.17 µg/mL (≈ 1.95 µM); in test [6], over 150 µg/mL; in test [7], 1.17 µg/mL (≈ 1.95 µM); in test [8] it was 0.58 µg/mL (≈ 0.967 µM).
`Cn1c(N)c(C(c2cn(-c3ccccc3)nc2-c2ccc([N+](=O)[O-])cc2)c2c(O)c3cc(F)ccc3oc2=O)c(=O)n(C)c1=O` (stereo unspecified): the MBEC result in test [1] and in test [2] was “inactive” throughout. In test [3], this compound showed an MBEC of 10 µg/mL. Besides, the minimal inhibitory concentration (MIC) in test [4] is over 150 µg/mL; in test [5], 2.34 µg/mL (≈ 3.83 µM); in test [6], over 150 µg/mL; in test [7], 4.68 µg/mL (≈ 7.67 µM); in test [8], 2.34 µg/mL (≈ 3.83 µM).
In the case of `Cc1cc(O)c(C(c2c(N)n(C)c(=O)n(C)c2=O)C2CCCCC2)c(=O)o1` (stereo unspecified), the minimal inhibitory concentration (MIC) in test [4] was over 150 µg/mL; in test [5], 150 µg/mL (≈ 400 µM); in test [6] it was over 150 µg/mL; in test [7], over 150 µg/mL; in test [8], over 150 µg/mL.
Turning to `COc1cc(C(c2c(O)c3cc(F)ccc3oc2=O)c2c(N)n(C)c(=O)n(C)c2=O)cc(OC)c1O` (stereo unspecified), the MIC in test [4] was over 150 µg/mL; in test [5], over 150 µg/mL; in test [6] it was 37.5 µg/mL (≈ 75.1 µM); in test [7] it was over 150 µg/mL; in test [8], 18.8 µg/mL (≈ 37.5 µM).
